Experimental data: patent publication US11091437B2, “Aryl isonitriles as a new class of antimicrobial compounds” (Purdue Research Foundation, priority 2015, dated 2021)
In brackets after ≈: the same amount, converted by molar mass. Read-outs that look alike come from different tables or passages of the source.

Experiments:
MRSA = test: MIC by broth microdilution against MRSA, VISA and VRSA strains; assay type: cell-based, Staphylococcus aureus; conditions: for antimicrobial activity (in words): MRSA strains tested
Description: The bacterial growth inhibiting activity of these synthetic analogs of hit compound 1 were subsequently evaluated (FIG. 3).
The minimum inhibitory concentration (MIC) of each compound and linezolid was determined against eight different strains of MRSA, VISA, and VRSA using a modified version of the broth microdilution method, outlined by the CLSI. Institute CaLS, Methods for Dilution Antimicrobial Susceptibility Tests for Bacteria That Grow Aerobically—Seventh Edition: Approved Standard M7-A7. 7 ed. Wayne, Pa. 2011. The same analysis was performed with vancomycin against the VISA and VRSA strains tested. A bacterial suspension (˜1 Å˜10^5 CFU/mL) was prepared in Tryptic soy broth (TSB) and then transferred to a microtiter plate. Each agent tested was added (in triplicate) to wells in the first row of the plate and then serially diluted downward.

[1] = tested on: murine macrophage (J774) cell line; test: MTS toxicity assay against mammalian cells
MRSA USA300 = test: whole-cell screening of in house small molecules; assay type: cell-based, Staphylococcus aureus; conditions: MRSA USA300, whole-cell screening hit
Source text: A whole-cell screening of a small number of in house generated small molecules with diverse structural skeletons (about 250 molecules) has been conducted against MRSA USA300 with the aim to identify compounds with novel skeletons to target antibiotic drug resistance. […] Marconi, G. G. et al., J. Antibiot, 1978, 31, 27-32; Mo, S. et al., J. Nat. Prod. 2009, 72, 894-899; Raveh, A. et al., J. Nat. Prod. 2007, 70, 196-201; Sugawara, T. et al., J. Antibiot, 1997, 50, 944-948; Fujiwara, A. et al., Agric. Biol. Chem. 1982, 46, 1803-1809, Marquez, J. A. et al., J. Antibiot, 1983, 36, 1101-1108. The novel structural skeleton of compound 1 as an antibacterial compound against drug resistant strains prompted further study of these types of isonitrile compounds. Herein is reported the chemical synthesis, structure-activity relationship study, and evaluation of the antibacterial performance of compound 1 and closely related analogs against several clinically-relevant MRSA and VRSA strains.

[2] = tested on: S. aureus exhibiting resistance to vancomycin (VRS2); test: MIC by broth microdilution against vancomycin-resistant S. aureus; assay type: cell-based; conditions: Staphylococcus aureus; vancomycin-resistant clinical isolate VRS2
physchem = conditions: aqueous buffer, kinetic from dmso stock
[3] = human, microsomes, 1 h
Caco-2 cell monolayer = conditions: human
in vitro = conditions: human, Caco-2
[4] = Staphylococcus aureus, broth microdilution, over the MRSA strains tested, read-out: MIC against MRSA

Q: With `[C-]#[N+]c1ccc(C)cc1-c1ccc(C(F)(F)F)cc1` [Compound 50, 2-isocyano-5-methyl-4′(trifluoromethyl)-1,1′-biphenyl] as the compound, how does the “antimicrobial activity (in words)” value (MRSA; broth microdilution) read?
A: loss in antimicrobial activity

Q: For `[C-]#[N+]c1ccccc1/C=C/c1ccncc1` [Compound 33, (E)-4-(2-isocyanostyryl)pyridine], which “antimicrobial activity (in words)” value (MRSA; broth microdilution) is on record?
A: reduced antimicrobial activities

Q: Which MIC (MRSA; [4]) does the source give for `[C-]#[N+]c1ccccc1/C=C/c1ccc(C)cc1` [Compound 23, (E)-1-isocyano-2-(4-methylstyryl)benzene] here?
A: 4 to 64 µM (≈ 0.877 to 14 µg/mL)

Q: Which “activity against MRSA USA300, MRSA USA500 and MRSA NRS119” value (MRSA; strains USA300, USA500, NRS119) does the source give for `[C-]#[N+]c1ccccc1C=C1CCCCC1` [Compound 26, 1-(cyclohexylidenemethyl)-2-isocyanobenzene] here?
A: inactive

Q: Which MIC (MRSA; Staphylococcus aureus, MRSA, read-out: MIC against most MRSA strains tested) does the source give for `[C-]#[N+]c1ccccc1/C=C/c1ccc(CCCC)cc1` [Compound 24, (E)-1-(4-butylstyryl)-2-isocyanobenzene] here?
A: > 128 µM

Q: Which results are given for `[C-]#[N+]c1ccccc1/C=C/c1cccnc1` [Compound 30, (E)-3-(2-isocyanostyryl)pyridine]?
A: toxicity to J774 cells at 128 μM [1]: not toxic; antimicrobial activity (in words) (MRSA; broth microdilution): reduced antimicrobial activities

Q: Which MIC (MRSA; broth microdilution, over the MRSA strains tested, read-out: MIC against MRSA) does the source give for `[C-]#[N+]c1ccccc1CP(=O)(OCC)OCC` [Compound 4a, diethyl (2-isocyanobenzyl)phosphonate] here?
A: > 128 µM

Q: For `[C-]#[N+]c1ccccc1/C=C(\CC)c1ccccc1` [Compound 1, (E)-1-isocyano-2-(2-phenylbut-1-en-1-yl)benzene], which MIC (MRSA; [4]) is on record?
A: 8 to 64 µM (≈ 1.87 to 14.9 µg/mL)

Q: What about the “concentration inhibiting bacterial growth” value (MRSA USA300) of the same compound?
A: 32 µM

Q: Which “toxicity to J774 cells at 64 μM” value [1] does the source give for `[C-]#[N+]c1ccccc1/C=C/c1cccc(F)c1` [Compound 19, (E)-1-(3-fluorostyryl)-2-isocyanobenzene] here?
A: toxic

Q: With `[C-]#[N+]c1ccc(/C=C/c2cccnc2)cc1` [Compound 32, (E)-3-(4-isocyanostyryl)pyridine] as the compound, how does the MIC [2] read?
A: 2 to 16 µM (≈ 0.412 to 3.3 µg/mL)

Q: With `[C-]#[N+]c1ccccc1CCc1ccccc1` [Compound 53, 1-isocyano-2-phenethylbenzene] as the compound, how does the “potency relative to compound 13” value (MRSA; all strains tested except VISA NRS1) read?
A: less potent

Q: What about the “activity against MRSA USA100, MRSA USA300, MRSA NRS119 and VISA NRS1” value (MRSA; strains USA100, USA300, NRS119, VISA NRS1) of the same compound?
A: active

Q: With `[C-]#[N+]c1ccccc1/C=C(\CC)c1cccc(C(F)(F)F)c1` [Compound 12] as the compound, how does the “toxicity to J774 cells at 64 μM” value [1] read?
A: toxic

Q: Which “concentration up to which not toxic to mammalian cells” value ([1]; J774 cells) does the source give for `[C-]#[N+]c1ccccc1/C=C/c1ccccc1` [Compound 13, (E)-1-isocyano-2-styrylbenzene] here?
A: 64 µM

Q: What about the MIC (MRSA; [4]) of the same compound?
A: ≥ 2 µM

Q: What about the “reduction in the MIC against MRSA relative to compound 1” value (MRSA; removal of the ethyl group of 1) of the same compound?
A: two-to-eight

Q: And the solubility (physchem)?
A: 1 to 100 µM (≈ 0.205 to 20.5 µg/mL)

Q: What about the “parent compound remaining after one hour” value [3] of the same compound?
A: 24%

Q: And the “parent compound remaining after one hour, NADPH not present” value [3]?
A: 51%

Q: What about the “apparent permeability Papp, apical (A) to basolateral (B)” value (Caco-2 cell monolayer) of the same compound?
A: 0.0 cm/sec

Q: And the “apparent permeability Papp, basolateral to apical” value (Caco-2 cell monolayer)?
A: 0.0 cm/sec

Q: With `[C-]#[N+]c1ccccc1/C=C(\CC)c1ccc(C(F)(F)F)cc1` [Compound 10, (E)-1-isocyano-2-(2-(4-(trifluoromethyl)phenyl)but-1-en-1-yl)benzene] as the compound, how does the MIC [2] read?
A: 2 to 16 µM (≈ 0.603 to 4.82 µg/mL)

Q: For `[C-]#[N+]c1ccccc1/C=C/c1cccc(OC)c1` [Compound 15, (E)-1-isocyano-2-(3-methoxystyryl)benzene], which “toxicity to J774 cells at 128 μM” value [1] is on record?
A: not toxic

Q: Which results are given for `[C-]#[N+]c1ccc(/C=C/c2ccccc2)cc1` [Compound 37, (E)-1-isocyano-4-styrylbenzene]?
A: toxicity to J774 cells at 128 μM [1]: not toxic; activity relative to ortho-substituted compound 13 (MRSA; MSSA (NRS72) and MRSA USA500): slight improvement

Q: For `CC(=O)CC(c1ccccc1)c1c(O)c2ccccc2oc1=O` (stereo not shown) [warfarin], which Papp B→A (in vitro) is on record?
A: 27 ×10⁻⁶ cm/s

Q: Which results are given for `[C-]#[N+]c1ccc(/C=C/c2ccncc2)cc1` [Compound 35, (E)-4-(4-isocyanostyryl)pyridine]?
A: MIC [2]: 2 to 16 µM (≈ 0.412 to 3.3 µg/mL); activity relative to ortho- and meta-substituted 33 and 34 (MRSA; all the strains tested): much more active

Q: What does the source list for `[C-]#[N+]c1ccccc1/C=C/c1ccc([N+](=O)[O-])cc1` [Compound 25, (E)-1-isocyano-2-(4-nitrostyryl)benzene]?
A: toxicity to J774 cells at 32 μM ([1]; 32 μM): toxic; toxicity to J774 cells at 64 μM [1]: toxic; MIC [2]: 2 to 16 µM (≈ 0.501 to 4 µg/mL)

Q: For `[C-]#[N+]c1ccccc1/C=C/c1ccccn1` [Compound 27, (E)-2-(2-isocyanostyryl)pyridine], which “antimicrobial activity (in words)” value (MRSA; broth microdilution) is on record?
A: reduced antimicrobial activities
